Common to all, as to type: cell-based
What all share (settings): 168 h, read-out: ED50

The subject of experiment [1] is Plectosphaerella cucumerina. The experiment is described as follows: In vitro bioassay, mycelia growth on PDA (Example 1).
Another experiment has as its system Fusarium graminearum. The experiment can be described thus: microbe, parasite or virus in culture.
For the next experiment, the system named is Alternaria radicina. The experiment can be described thus: In vitro bioassay, mycelia growth on PDA (Example 1).

Turning to `C[S+]([O-])CCCCCCCCN=C=S` (stereo not drawn) [100/0, 1-Isothiocyanato-8-(methylsulfinyl)-octane], the EC50 stood at 312 µM in experiment [1], 331 µM in the experiment on Fusarium graminearum and 228 µM in the experiment with Alternaria radicina.

In the case of `CS(=O)(=O)CCCCCCCCN=C=S` [0/100, 1-Isothiocyanato-8-(methylsulfonyl)-octane], the EC50 came to 480 µM in experiment [1], 536 µM with Fusarium graminearum and 763 µM with Alternaria radicina.
